Legend:
RPMI-8226 target cells [1] = assay: Rechallenge with RPMI-8226 after concurrent compound treatment during chronic stimulation (cytolysis, cytokines); type: cell-based, human
Description: (§1) Cryofrozen anti-BCMA CAR T cells, produced substantially as described in Example 1 and formulated at a 1:1 ratio of CD4+ and CD8^+ T cells, were thawed. To subject cells to chronic stimulation conditions, the anti-BCMA CAR+ T cells were stimulated with 50 μg BCMA conjugated beads (diameter about 4.5 μm from a 50 μg/ml BCMA-conjugated bead composition, generated as described in Example 2) at a ratio of T cells to beads of 1:1 in the presence or absence of Compound A (iberdomide, (S)-3-[4-(4-morpholin-4-ylmethyl-benzyloxy)-1-oxo-1,3-dihydro-isoindol-2-yl]-piperidine-2,6-dione) (1 nM or 10 nM), Compound B ((S)-4-(4-(4-(((2-(2,6-dioxopiperidin-3-yl)-1-oxoisoindolin-4-yl)oxy)methyl)benzyl)piperazin-1-yl)-3-fluorobenzonitrile) (0.1 nM or 1 nM), or DMSO vehicle control. The cells were then incubated at 37° C., 5% CO2 for 7 days.
CAR T cells that had been stimulated for 7 days with cultured with 50 μg BCMA-coated magnetic beads concurrently in the presence of the cell immunomodulatory compound were washed free of compound and cells were debeaded. The anti-BCMA CAR T cells that had been stimulated for 7 days with BCMA-conjugated beads in the presence of the compounds were co-cultured with RPMI-8226 target cells (labeled with NucLightRed as described in Example 2) at a 1:1 (effector:target) ratio. Killing activity was monitored over 200 hours by measuring NucLightRed (NLR)-positive target cells. The total cell number of NLR-expressing RPMI targets cells was determined by normalizing cell number over time to the number of cells at the initiation of the co-culture (t=0) for each respective condition.
For cytokine measurements, cell-free supernatants were collected from the cytolytic assay described above 24 hours after plating. Cytokine levels of IFNg, IL-2, and TNFalpha (TNFα) was measured in the supernatant.
(§2) Cryofrozen anti-BCMA CAR T cells, produced substantially as described in Example 1 and formulated at a 1:1 ratio of CD4+ and CD8+ T cells, were thawed. […] The cells were then incubated at 37° C., 5% CO2 for 7 days.
Cytolytic activity was assessed using OPM-2 and RPMI-8226 BCMA expressing target cells transduced with NucLight Red, a red fluorescent protein detectable by microscopy, to allow for measurement of target cell death. Anti-BCMA CAR T cells that had been stimulated for 7 days with BCMA-conjugated beads in the presence of the compounds were co-cultured with RPMI-8226 target cells at a 0.3:1 (effector:target) or 1:1 ratio. Cultures were incubated at 37° C., 5% CO2, and images were taken every 2 hours over 5-7 days with an Essen IncuCyte Zoom live-cell analysis system to track NucLightRed-positive target cells.
For cytokine measurements, cell-free supernatants were collected from the cytolytic assay described above 24 hours after plating. Cytokine levels were measured using IFNg, IL-2, and TNFalpha Meso Scale Discovery cytokine kit (Mesoscale) according to manufacturer instructions. The data was analyzed using GraphPad Prism to calculate absolute changes in cytokine relative to the DMSO vehicle control.

anti-BCMA CAR T cells = assay: Viability and count of anti-BCMA CAR T cells after 7-day chronic stimulation with BCMA-conjugated beads; type: cell-based, human
Description: as §1
At day 7, anti-BCMA CAR cells of all the samples were counted using a cellometer machine and stained for flow cytometric analysis. Cells were stained with a viability dye and analyzed by flow cytometry. Viability and count of anti-BCMA CAR T cells was increased in the presence of Compound A or Compound B.
as §2
At day 7, anti-BCMA CAR cells of all the samples were counted using a cellometer machine and stained for flow cytometric analysis. Cells were stained with a viability dye and analyzed by flow cytometry.

Ikaros = assay: Intracellular Ikaros expression in BCMA-bead stimulated anti-BCMA CAR T cells (flow cytometry, MFI); type: cell-based, human
Description: (§3) A BCMA-Fc fusion protein containing the extracellular domain of human BCMA and a human IgG1Fc was conjugated to beads by covalently coupling to the surface of commercially available tosyl-activated magnetic beads having a diameter of approximately […] (M-450 beads, ThermoFisher, Waltham Mass.) (see e.g. International published PCT App. No. WO2019/027850). Following incubation, anti-BCMA CAR-expressing T cells were stained with antibodies and analyzed by flow cytometry to assess intracellular levels of Ikaros and Aiolos in CD4+CAR+ or CD8+CAR+ cells, as measured by median fluorescence intensity (MFI). Median fluorescence intensity (MFI) values for Ikaros and Aiolos were normalized and calculated as a percentage relative to vehicle control.

PBMCs = settings: cultures of PBMCs; cited from earlier work
RPMI-8226 target cells [2] = assay: Acute co-culture cytokine secretion of anti-BCMA CAR T cells with RPMI-8226; type: cell-based, human
Description: Anti-tumor effects of anti-BCMA CAR T cells, alone and in combination with cell immunomodulatory compounds Compound A (iberdomide, (S)-3-[4-(4-morpholin-4-ylmethyl-benzyloxy)-1-oxo-1,3-dihydro-isoindol-2-yl]-piperidine-2,6-dione) or Compound B ((S)-4-(4-(4-(((2-(2,6-dioxopiperidin-3-yl)-1-oxoisoindolin-4-yl)oxy)methyl)benzyl)piperazin-1-yl)-3-fluorobenzonitrile), were assessed in two different BCMA-expressing target multiple myeloma cell lines RPMI-8226 or OPM-2. Anti-BCMA CAR+ T cells were generated as described in Example 1.
The anti-BCMA CAR-expressing T cells were incubated with target cells, RPMI 8226 (BCMA^med human multiple myeloma cell line) or OPM2 cells (BCMA^med human multiple myeloma cell line) target cells, at an E:T ratio of 1:1. The co-culture incubation with target cells was carried out in the presence of Compound A (0.01 nM, 0.1 nM, 1 nM, 10 nM, 100 nM, 1000 nM, or 10,000 nM) or Compound B (0.01 nM, 0.1 nM, 1 nM, 10 nM, 100 nM, 1000 nM, or 10,000 nM).

Aiolos = assay: Intracellular Aiolos expression in BCMA-bead stimulated anti-BCMA CAR T cells (flow cytometry, MFI); type: cell-based, human; settings: CD4+CAR+ or CD8+CAR+ cells; 24 or 72 hours; lenalidomide 1000 nM, Compound A 1, 10, 100 nM, Compound B 0.1, 1, 10 nM
Description: as §3

RPMI-8226 target cells [3] = assay: Rescue: rechallenge of chronically stimulated anti-BCMA CAR T cells with RPMI-8226 in the presence of compound; type: cell-based, human; settings: Example 4: Compound A 1 or 10 nM, Compound B 0.1 or 1 nM during re-challenge
Description: Anti-BCMA CAR-expressing T cells, produced as described in Example 1, were stimulated with 50 μg BCMA conjugated beads (diameter about 4.5 μm from a 50 μg/ml BCMA-conjugated bead composition) substantially as described in Example 3 to induce chronic stimulation (to produce hypofunctional, exhausted T cells). After the chronic stimulation, the CAR-T cells were rechallenged with RPMI-8226 target cells (labeled with NucLightRed as described in Example 2) at a 1:1 (effector:target) ratio in the presence of (rescued) with Compound A (iberdomide, (S)-3-[4-(4-morpholin-4-ylmethyl-benzyloxy)-1-oxo-1,3-dihydro-isoindol-2-yl]-piperidine-2,6-dione) (1 nM or 10 nM), Compound B ((S)-4-(4-(4-(((2-(2,6-dioxopiperidin-3-yl)-1-oxoisoindolin-4-yl)oxy)methyl)benzyl)piperazin-1-yl)-3-fluorobenzonitrile) (0.1 nM or 1 nM), or DMSO vehicle control.
Killing activity and cytokine production were assessed as described in Example 3.
Studies were undertaken to determine whether Compound A (iberdomide, (S)-3-[4-(4-morpholin-4-ylmethyl-benzyloxy)-1-oxo-1,3-dihydro-isoindol-2-yl]-piperidine-2,6-dione) rescued anti-BCMA CAR T cell function following chronic stimulation. To directly stimulate via CAR engagement to induce chronic stimulation of cells, anti-BCMA CAR T cells were stimulated with BCMA conjugated beads (diameter about 4.5 μm from a 50 μg/ml BCMA-conjugated bead composition, generated as described in Example 9) at a ratio of T cells to beads of 1:1. The cells were then incubated at 37° C., 5% CO2 for 7 days.
Cultures were incubated at 37° C., 5% CO2, and images were taken every 2 hours over 5-7 days with an Essen IncuCyte Zoom live-cell analysis system to track NucLightRed-positive target cells.

[4] = Example 7: day 7, lenalidomide 1000 nM, Compound A 0.1, 1 or 10 nM, FIG. 8
[5] = Example 3: day 7, Compound A 1 or 10 nM, Compound B 0.1 or 1 nM

Structure (SMILES)	cytolytic activity after long-term stimulation in the presence of compound (RPMI-8226 target cells [1]; Example 7: E:T 0.3:1, lenalidomide 1000 nM, Compound A 1 or 10 nM, FIG. 9A)	production of IFN-gamma (RPMI-8226 target cells [1]; Example 7: supernatant at 24 hours, relative to DMSO, FIG. 9B)	production of IL-2 (RPMI-8226 target cells [1]; Example 7: supernatant at 24 hours, relative to DMSO, FIG. 9C)	production of TNF-alpha (RPMI-8226 target cells [1]; Example 7: supernatant at 24 hours, relative to DMSO, FIG. 9D)	count of anti-BCMA CAR T cells (anti-BCMA CAR T cells; [4])	viability of anti-BCMA CAR T cells (anti-BCMA CAR T cells; [4])	intracellular Ikaros expression (MFI, percentage relative to vehicle control) (Ikaros; CD4+CAR+ or CD8+CAR+ cells, 24 or 72 hours, lenalidomide 1000 nM, Compound A 1, 10, 100 nM, Compound B 0.1, 1, 10 nM)	potency in decreasing Ikaros and Aiolos expression, compared with lenalidomide (Ikaros; stimulated anti-BCMA CAR T cells)	activation of T cells (PBMCs)	loss of Aiolos and Ikaros (PBMCs)	production of IL-2 and IFN-γ (PBMCs)	concentration needed for effect on cytokine production, compared with Compound A (RPMI-8226 target cells [2]; acute co-culture)	CAR T cell cytokine production (RPMI-8226 target cells [2]; similar studies, target cell line not stated)	intracellular Aiolos expression (MFI, percentage relative to vehicle control) (Aiolos)	count of anti-BCMA CAR T cells (anti-BCMA CAR T cells; [5])	viability of anti-BCMA CAR T cells (anti-BCMA CAR T cells; [5])	rescue of chronically activated CAR T cells (RPMI-8226 target cells [3])
Nc1cccc2c1CN(C1CCC(=O)NC1=O)C2=O (centres unmarked) [lenalidomide, reference compound]	increased cytolytic activity	increased production	increased production	increased production	increased	increased	–	–	–	–	–	–	–	–	–	–	–
N#Cc1ccc(N2CCN(Cc3ccc(COc4cccc5c4CN([C@H]4CCC(=O)NC4=O)C5=O)cc3)CC2)c(F)c1 [Compound B, (S)-4-(4-(4-(((2-(2,6-dioxopiperidin-3-yl)-1-oxoisoindolin-4-yl)oxy)methyl)benzyl)piperazin-1-yl)-3-fluorobenzonitrile]	–	–	–	–	–	–	concentration dependent decrease	more potent than lenalidomide	activation of T cells	induces loss of Aiolos and Ikaros	increased production of IL-2 and IFN-γ	enhanced effects at lower concentrations compared to Compound A	increased	concentration dependent decrease	increased	increased	able to rescue chronically activated CAR T cells to improve functionality
